Drawing on ChEMBL document CHEMBL3044715, “Synthesis, spectral studies and biological evaluation of a novel series of 2-substituted-5,6-diarylsubstituted imidazo(2,1-b)-1,3,4-thiadiazole derivatives as possible anti-tubercular agents” (Med Chem Res, 2012), this text covers IC50 and MIC for 20 compounds.

Structures are written as SMILES. pIC50: −log10 of the molar value. Values after ≈ are worked out from the molar mass of the structure shown. Active and inactive are the calls of the source. The calls are words filed in the database; no cut-off is given here. Bounds are passed on as bounds.

In one assay the test system is Vero. In words: Cytotoxicity against Chlorocebus aethiops (African green monkey) Vero cells after 72 hr by MTT assay. The format is cell-based. Conditions: Chlorocebus sabaeus.
In assay [1] the test system is Mycobacterium tuberculosis. In words: Antimycobacterial activity against Mycobacterium tuberculosis H37Rv ATCC 27294 after 5 days by Alamar blue assay. The format is functional.

For orientation: pIC50 means the IC50 on a negative log10 scale, so that one unit is a factor of ten. Low readings indicate a large IC50, high ones a small IC50. One may read the MIC as the least concentration at which growth counts as inhibited. For the compound `COc1ccc(-c2nn3c(-c4ccc(OC)cc4)c(-c4ccc(SC)cc4)nc3s2)cc1`, in the assay with Vero, the pIC50 was 3.92. This compound came in with an MIC in assay [1] (H37Rv ATCC 27294, 120 h) of 10 µg/mL (≈ 21.8 µM).

In the assay on Vero, `COc1ccc(-c2c(-c3ccccc3)nc3sc(S(N)(=O)=O)nn23)cc1` gave a pIC50 of 3.69. The minimum inhibitory concentration (MIC) in assay [1] (H37Rv ATCC 27294, 120 h) turned out to be 5 µg/mL (≈ 12.9 µM).

For the compound `COc1ccc(-c2c(-c3ccc(SC)cc3)nc3sc(S(N)(=O)=O)nn23)cc1`, the pIC50 in the assay on Vero was 3.67. This compound yielded an MIC in assay [1] (H37Rv ATCC 27294, 120 h) of 2.5 µg/mL (≈ 5.78 µM).

On to `COc1ccc(-c2nc3sc(S(N)(=O)=O)nn3c2-c2ccc(OC)cc2)cc1`, for which the pIC50 in the assay on Vero is 3.61. The compound also registered an MIC in assay [1] (H37Rv ATCC 27294, 120 h) of 1.25 µg/mL (≈ 3 µM).

Turning to `COc1ccc(-c2c(-c3ccccc3)nc3sc(-c4ccc(F)cc4)nn23)cc1`, the MIC result in assay [1] is “inactive”.

Turning to `COc1ccc(-c2nc3sc(C(F)(F)F)nn3c2-c2ccc(OC)cc2)cc1`, in the assay on Vero, the pIC50 is 3.83. Moreover, 1.25 µg/mL (≈ 3.08 µM) was the least that counted as inhibitory in assay [1] (H37Rv ATCC 27294, 120 h) (MIC).

In turn, `COc1ccc(-c2c(-c3ccc(SC)cc3)nc3sc(C(F)(F)F)nn23)cc1` showed a pIC50 in the assay on Vero of 3.91. The compound further showed an MIC in assay [1] (H37Rv ATCC 27294, 120 h) of 5 µg/mL (≈ 11.9 µM).

For the compound `CSc1ccc(-c2nc3sc(S(N)(=O)=O)nn3c2-c2ccccc2)cc1`, the pIC50 in the assay with Vero is 3.72. Further, the MIC in assay [1] (H37Rv ATCC 27294, 120 h) is 2.5 µg/mL (≈ 6.21 µM).

In the case of `CSc1ccc(-c2nc3sc(-c4ccc(F)cc4)nn3c2-c2ccccc2)cc1`, the MIC entry in assay [1] was “inactive”.

For the compound `CSc1ccc(-c2nc3sc(C(F)(F)F)nn3c2-c2ccccc2)cc1`, the pIC50 in the assay on Vero was 3.86. The compound further yielded an MIC in assay [1] (H37Rv ATCC 27294, 120 h) of 10 µg/mL (≈ 25.5 µM).

On to `Cc1ccc(-c2nc3sc(C(F)(F)F)nn3c2-c2ccccc2)cc1`, for which the MIC entry in assay [1] was “inactive”.

In the case of `COc1ccc(-c2nn3c(-c4ccccc4)c(-c4ccc(C)cc4)nc3s2)cc1`, the MIC entry in assay [1] was “inactive”.

Compound `NNC(=O)c1ccncc1` [ISONIAZID] gave a pIC50 in the assay on Vero of under 3.35. This compound also showed an MIC in assay [1] (H37Rv ATCC 27294, 120 h) of 0.25 µg/mL (≈ 1.82 µM).

`Cc1ccc(-c2nc3sc(S(N)(=O)=O)nn3c2-c2ccccc2)cc1`: in the assay with Vero, the pIC50 is 3.77. The MIC in assay [1] (H37Rv ATCC 27294, 120 h) worked out at 10 µg/mL (≈ 27 µM).

Regarding `COc1ccc(-c2nn3c(-c4ccccc4)c(-c4ccc(SC)cc4)nc3s2)cc1`, the pIC50 in the assay on Vero was 3.87. The MIC in assay [1] (H37Rv ATCC 27294, 120 h) amounted to 10 µg/mL (≈ 23.3 µM).

For the compound `COc1ccc(-c2c(-c3ccc(SC)cc3)nc3sc(-c4ccc(F)cc4)nn23)cc1`, in the assay on Vero, the pIC50 was 3.94. The MIC in assay [1] (H37Rv ATCC 27294, 120 h) turned out to be 10 µg/mL (≈ 22.3 µM).

The compound `COc1ccc(-c2nc3sc(-c4ccc(F)cc4)nn3c2-c2ccc(OC)cc2)cc1` gave a pIC50 with Vero of 3.79. Also, the MIC in assay [1] (H37Rv ATCC 27294, 120 h) came to 5 µg/mL (≈ 11.6 µM).

Consider `COc1ccc(-c2nn3c(-c4ccc(OC)cc4)c(-c4ccc(OC)cc4)nc3s2)cc1`, for which the pIC50 in the assay with Vero is 3.79. Further, 5 µg/mL (≈ 11.3 µM) was the least that counted as inhibitory in assay [1] (H37Rv ATCC 27294, 120 h) (MIC).

Regarding `COc1ccc(-c2c(-c3ccccc3)nc3sc(C(F)(F)F)nn23)cc1`, the MIC entry in assay [1] was “inactive”.

Regarding `COc1c(N2CCNC(C)C2)c(F)cc2c(=O)c(C(=O)O)cn(C3CC3)c12` (stereo not given) [GATIFLOXACIN], the negative logarithm of the IC50 (pIC50) with Vero is under 3.26. Also, the MIC in assay [1] (H37Rv ATCC 27294, 120 h) came to 1 µg/mL (≈ 2.66 µM).
